# Laboratory results from patent US20160137639A1, “TRIAZOLE-ISOXAZOLE COMPOUND AND MEDICAL USE THEREOF” (JAPAN TOBACCO INC., priority 2012, published 2016).
# Read-outs that look alike come from different tables or passages of the source.
# Assays:
# human RORγ = molecular target: T1, human RORγ (Homo sapiens, UniProt P51449); experiment: Luciferase reporter gene assay of inhibitory effect against RORγ transcriptional activity (GAL4-hRORγ plasmid in CHO cells); assay type: cell-based
# T1 construct: human, NM_005060.3 and from Ser253 to Lys518; expressed in transfected cells; host or cells: CHO cells (transient co-transfection with pG5-Luc reporter)
# T1 sequence (P51449 253-518): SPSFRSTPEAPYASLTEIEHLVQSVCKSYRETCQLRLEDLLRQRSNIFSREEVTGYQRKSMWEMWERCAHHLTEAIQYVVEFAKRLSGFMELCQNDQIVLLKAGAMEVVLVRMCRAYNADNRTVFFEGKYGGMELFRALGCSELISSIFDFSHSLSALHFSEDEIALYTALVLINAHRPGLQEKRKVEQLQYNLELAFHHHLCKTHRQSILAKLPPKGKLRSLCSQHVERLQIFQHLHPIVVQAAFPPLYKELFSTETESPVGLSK
# mouse RORγ = molecular target: T2, mouse RORγ (Mus musculus, UniProt P51450); experiment: Luciferase reporter gene assay of inhibitory effect against RORγ transcriptional activity (GAL4-mRORγ plasmid in CHO cells); assay type: cell-based
# T2 construct: mouse, NM_011281.2 and from Ile251 to Lys516; expressed in transfected cells; host or cells: CHO cells (transient co-transfection with pG5-Luc reporter)
# T2 sequence (P51450 251-516): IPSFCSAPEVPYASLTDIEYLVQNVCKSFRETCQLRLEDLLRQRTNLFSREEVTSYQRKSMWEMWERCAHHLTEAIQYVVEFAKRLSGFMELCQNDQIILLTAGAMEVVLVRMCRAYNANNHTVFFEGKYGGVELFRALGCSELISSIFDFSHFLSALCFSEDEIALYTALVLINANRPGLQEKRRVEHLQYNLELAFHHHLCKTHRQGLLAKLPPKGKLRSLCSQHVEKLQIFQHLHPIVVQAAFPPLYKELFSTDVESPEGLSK
# How it was run: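 Readout is intracellular luciferase after 2-day compound exposure (8 concentrations, 0.1% DMSO) in CHO cells expressing GAL4 fused to mouse RORγ LBD residues Ile251–Lys516 plus pG5-Luc reporter. EC50 fitted from %-of-control; points showing resazurin-detected cytotoxicity dropped.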
Compound,EC50 (human RORγ; read-out: LUC EC50 (μM) hRORg),EC50 (mouse RORγ; read-out: LUC EC50 (μM) mRORg),EC50 (human RORγ; read-out: LUC EC50 hRORg),EC50 (mouse RORγ; read-out: LUC EC50 mRORg)
"CC(=O)N1C[C@H](C(=O)Nc2ccc(C)cc2C)[C@@H](c2nnc(C(O)CCC(C)(C)C)n2C2CC2)C1 (single isomer, unassigned) [Example F-348]",> 3 µM,> 3 µM,,
"CC(=O)N1C[C@H](C(=O)Nc2ccc(C)cc2C)[C@@H](c2nnc(C(O)CCC(C)(C)C)n2C2CC2)C1 (single isomer, unassigned) [Example F-349]",> 3 µM,> 3 µM,,
"Cc1ccc(NC(=O)CCc2nnc(C3(O)CC(CC(C)C)C3)n2C2CC2)c(C)c1 (single isomer, unassigned) [Example F-429]",< 3 µM,< 3 µM,,
"Cc1ccc(NC(=O)CCc2nnc(C3(O)CC(CC(C)C)C3)n2C2CC2)c(C)c1 (single isomer, unassigned) [Example F-430]",< 3 µM,< 3 µM,,
"Cc1ccc(NC(=O)CCc2nnc(C3CC(COC(C)C)C3)n2C2CC2)c(C)c1 (single isomer, unassigned) [Example F-477]",< 3 µM,< 3 µM,,
"Cc1ccc(NC(=O)CCc2nnc(C3CC(COC(C)C)C3)n2C2CC2)c(C)c1 (single isomer, unassigned) [Example F-478]",> 3 µM,< 3 µM,,
"COC1(CC(C)C)CC(c2nnc([C@H]3CN(C(C)=O)C[C@@H]3C(=O)Nc3ccc(C)cc3C)n2C2CC2)C1 (single isomer, unassigned) [Example F-482]",< 3 µM,< 3 µM,,
"COC1(CC(C)C)CC(c2nnc([C@H]3CN(C(C)=O)C[C@@H]3C(=O)Nc3ccc(C)cc3C)n2C2CC2)C1 (single isomer, unassigned) [Example F-483]",< 3 µM,< 3 µM,,
"Cc1ccc(NC(=O)C(C)C(CCO)c2nnc([C@H]3C[C@@H](CC(C)C)C3)n2C2CC2)c(C)c1 (single isomer, unassigned) [Example F-490]",> 3 µM,> 3 µM,,
"Cc1ccc(NC(=O)C(C)C(CCO)c2nnc([C@H]3C[C@@H](CC(C)C)C3)n2C2CC2)c(C)c1 (single isomer, unassigned) [Example F-491]",> 3 µM,< 3 µM,,
"Cc1ccc(NC(=O)C(C)C(CCO)c2nnc([C@H]3C[C@@H](CC(C)C)C3)n2C2CC2)c(C)c1 (single isomer, unassigned) [Example F-492]",> 3 µM,> 3 µM,,
"Cc1ccc(NC(=O)C(C)C(CCO)c2nnc([C@H]3C[C@@H](CC(C)C)C3)n2C2CC2)c(C)c1 (single isomer, unassigned) [Example F-493]",< 3 µM,< 3 µM,,
"Cc1ccc(NC(=O)[C@H]2CC(CO)C[C@@H]2c2nnc([C@H]3C[C@@H](CC(C)C)C3)n2C2CC2)c(C)c1 (single isomer, unassigned) [Example F-512]",,,< 3 µM,< 3 µM
"Cc1ccc(NC(=O)[C@H]2CC(N(C)C)C[C@@H]2c2nnc([C@H]3C[C@@H](CC(C)C)C3)n2C2CC2)c(C)c1 (single isomer, unassigned) [Example F-534]",,,< 3 µM,< 3 µM
"Cc1ccc(NC(=O)[C@H]2CC(N(C)C(C)C)C[C@@H]2c2nnc([C@H]3C[C@@H](CC(C)C)C3)n2C2CC2)c(C)c1 (single isomer, unassigned) [Example F-539]",,,> 3 µM,< 3 µM
"COC1C[C@@H](C(=O)Nc2ccc(C)cc2C)[C@H](c2nnc([C@H]3C[C@@H](CC(C)C)C3)n2C2CC2)C1 (single isomer, unassigned) [Example F-555]",,,> 3 µM,> 3 µM
"COC1C[C@H](C(=O)Nc2ccc(C)cc2C)[C@@H](c2nnc([C@H]3C[C@@H](CC(C)C)C3)n2C2CC2)C1 (single isomer, unassigned) [Example F-556]",,,< 3 µM,< 3 µM
"COC1C[C@@H](C(=O)Nc2ccc(C)cc2C)[C@H](c2nnc([C@H]3C[C@@H](CC(C)C)C3)n2C2CC2)C1 (single isomer, unassigned) [Example F-557]",,,> 3 µM,> 3 µM

Compound,EC50 (human RORγ; read-out: LUC EC50 (μM) hRORg),EC50 (mouse RORγ; read-out: LUC EC50 (μM) mRORg),EC50 (human RORγ; read-out: LUC EC50 hRORg),EC50 (mouse RORγ; read-out: LUC EC50 mRORg)
"Cc1ccc(NC(=O)[C@H]2CC(C)(O)C[C@@H]2c2nnc([C@H]3C[C@@H](CC(C)C)C3)n2C2CC2)c(C)c1 (single isomer, unassigned) [Example F-562]",,,< 3 µM,< 3 µM
"Cc1ccc(NC(=O)[C@@H]2CC(C)(O)C[C@H]2c2nnc([C@H]3C[C@@H](CC(C)C)C3)n2C2CC2)c(C)c1 (single isomer, unassigned) [Example F-563]",,,< 3 µM,< 3 µM
"Cc1ccc(NC(=O)[C@@H]2CC(C)(O)C[C@H]2c2nnc([C@H]3C[C@@H](CC(C)C)C3)n2C2CC2)c(C)c1 (single isomer, unassigned) [Example F-564]",,,< 3 µM,< 3 µM
"Cc1ccc(NC(=O)[C@H]2CC(C)(O)C[C@@H]2c2nnc([C@H]3C[C@@H](CC(C)C)C3)n2C2CC2)c(C)c1 (single isomer, unassigned) [Example F-565]",,,< 3 µM,< 3 µM
"Cc1ccc(NC(=O)C[C@H](CC(O)C(F)(F)F)c2nnc([C@H]3C[C@@H](CC(C)C)C3)n2C2CC2)c(C)c1 (single isomer, unassigned) [Example F-621]",,,< 3 µM,< 3 µM
"Cc1ccc(NC(=O)C[C@H](CC(O)C(F)(F)F)c2nnc([C@H]3C[C@@H](CC(C)C)C3)n2C2CC2)c(C)c1 (single isomer, unassigned) [Example F-622]",,,< 3 µM,< 3 µM
"Cc1ccc(NC(=O)C[C@H](CCC(=O)O)c2noc3c2C(C)CCC3CCC(C)C)c(Cl)c1 (single isomer, unassigned) [Example F-690]",,,> 3 µM,< 3 µM
"Cc1ccc(NC(=O)C[C@H](CCC(=O)O)c2noc3c2C(C)CCC3CCC(C)C)c(Cl)c1 (single isomer, unassigned) [Example F-693]",,,< 3 µM,< 3 µM
"Cc1ccc(NC(=O)C[C@H](CCC(=O)O)c2noc3c2C(C)CCC3CCC(C)C)c(Cl)c1 (single isomer, unassigned) [Example F-694]",,,< 3 µM,< 3 µM
"Cc1ccc(NC(=O)C[C@H](CCC(=O)O)c2noc3c2C(C)CCC3CCC(C)C)c(Cl)c1 (single isomer, unassigned) [Example F-695]",,,> 3 µM,< 3 µM
"Cc1ccc(NC(=O)C[C@H](CCC(=O)O)c2noc3c2CCCC3CCC(C)C)c(Cl)c1 (single isomer, unassigned) [Example F-698]",,,< 3 µM,< 3 µM
Cc1ccc(NC(=O)C[C@H](CCC(=O)O)c2noc(-c3cc(CC(C)C)on3)c2C2CC2)c(Cl)c1 [Example E-01],< 3 µM,< 3 µM,,
Cc1ccc(NC(=O)C[C@H](CCC(=O)O)c2noc(-c3cc(CC(C)C)on3)c2C2CC2)c(F)c1 [Example E-03],< 3 µM,< 3 µM,,
"Cc1ccc(NC(=O)C[C@H](CCC(=O)O)c2noc(-c3cc(CC(C)C)no3)c2C2CC2)c(Cl)c1 [Example E-04, (S)-5-(2-chloro-4-methyl-phenylcarbamoyl)-4-(4-cyclopropyl-3′-isobutyl-[5,5′]biisoxazolyl-3-yl)-pentanoic acid]",< 3 µM,< 3 µM,,
Cc1ccc(NC(=O)C[C@H](CCC(=O)O)c2noc(-c3cc(CCC(C)C)on3)c2C2CC2)c(Cl)c1 [Example E-05],< 3 µM,< 3 µM,,
Cc1ccc(NC(=O)C[C@H](CCC(=O)O)c2noc(-c3cc(CC(C)(C)C)on3)c2C2CC2)c(Cl)c1 [Example E-06],< 3 µM,< 3 µM,,
Cc1ccc(NC(=O)C[C@H](CCC(=O)O)c2noc(-c3cc(CC(C)C)[nH]n3)c2C2CC2)c(F)c1 [Example E-07],> 3 µM,> 3 µM,,
Cc1ccc(NC(=O)C[C@H](CCC(=O)O)c2noc(-c3cc(CCC(C)C)on3)c2C2CC2)c(F)c1 [Example E-09],< 3 µM,< 3 µM,,
